In ChEMBL document CHEMBL3991601, “The target landscape of clinical kinase drugs” (Science, 2017):
The source made the active and inactive calls.

The compounds below were run against T1, Succinate--CoA ligase [ADP-forming] subunit beta, mitochondrial (Homo sapiens, UniProt Q9P2R7). Settings: not given.
T1 sequence (Q9P2R7 whole entry): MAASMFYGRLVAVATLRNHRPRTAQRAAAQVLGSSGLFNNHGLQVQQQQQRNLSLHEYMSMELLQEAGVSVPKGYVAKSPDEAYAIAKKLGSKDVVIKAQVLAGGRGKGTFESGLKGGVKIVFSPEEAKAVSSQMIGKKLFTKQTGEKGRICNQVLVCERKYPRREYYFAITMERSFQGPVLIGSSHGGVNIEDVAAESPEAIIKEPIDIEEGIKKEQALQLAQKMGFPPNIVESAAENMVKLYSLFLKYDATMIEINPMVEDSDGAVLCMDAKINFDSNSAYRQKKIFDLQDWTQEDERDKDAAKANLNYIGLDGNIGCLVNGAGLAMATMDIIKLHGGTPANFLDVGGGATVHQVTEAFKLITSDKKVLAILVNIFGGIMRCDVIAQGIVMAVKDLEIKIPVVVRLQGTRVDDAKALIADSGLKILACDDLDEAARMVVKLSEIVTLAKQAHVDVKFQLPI
Also: in the data inactive means no Kd found up to 30 µM.

| SMILES | Kd |
| --- | --- |
| Cc1ccc(S(=O)(=O)Nc2nc3ccccc3nc2Nc2ccc3nsnc3c2)cc1 | > 30 µM (inactive) |
| Cc1cc([C@@H](C)Nc2ccccc2C(=O)O)c2nc(N3CCOCC3)cc(=O)n2c1 [AZD-6482] | > 30 µM (inactive) |
| Cc1nc(N)sc1-c1ccnc(Nc2ccc(N3CCOCC3)cc2)n1 [CYC-116] | > 30 µM (inactive) |
| CCc1cnn2c(NCc3ccc[n+]([O-])c3)cc(N3CCCC[C@H]3CCO)nc12 [DINACICLIB] | > 30 µM (inactive) |

These compounds were tested against Mitogen-activated protein kinase 8 (Homo sapiens, UniProt P45983). Settings: not given.
Sequence of Mitogen-activated protein kinase 8 (P45983 whole entry): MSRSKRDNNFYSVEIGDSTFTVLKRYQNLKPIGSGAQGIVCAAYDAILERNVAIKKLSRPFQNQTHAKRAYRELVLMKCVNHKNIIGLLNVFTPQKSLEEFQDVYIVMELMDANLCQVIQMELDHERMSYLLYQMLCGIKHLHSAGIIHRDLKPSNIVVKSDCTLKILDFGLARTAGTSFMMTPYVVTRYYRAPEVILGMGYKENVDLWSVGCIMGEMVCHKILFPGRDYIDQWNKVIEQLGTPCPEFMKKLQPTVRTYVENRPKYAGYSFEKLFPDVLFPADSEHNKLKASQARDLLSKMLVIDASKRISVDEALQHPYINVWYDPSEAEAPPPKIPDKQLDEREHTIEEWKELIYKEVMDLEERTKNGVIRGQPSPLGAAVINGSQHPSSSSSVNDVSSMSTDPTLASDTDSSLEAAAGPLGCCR

| SMILES | Kd |
| --- | --- |
| Cc1ccc(S(=O)(=O)Nc2nc3ccccc3nc2Nc2ccc3nsnc3c2)cc1 | > 30 µM (inactive) |
| Cc1cc([C@@H](C)Nc2ccccc2C(=O)O)c2nc(N3CCOCC3)cc(=O)n2c1 [AZD-6482] | > 30 µM (inactive) |

The compounds below were run against Tyrosine-protein kinase SYK (Homo sapiens, UniProt P43405). Settings: not given.

| SMILES | Kd |
| --- | --- |
| Cc1ccc(S(=O)(=O)Nc2nc3ccccc3nc2Nc2ccc3nsnc3c2)cc1 | > 30 µM (inactive) |
| Cc1cc([C@@H](C)Nc2ccccc2C(=O)O)c2nc(N3CCOCC3)cc(=O)n2c1 [AZD-6482] | > 30 µM (inactive) |
| CCc1cnn2c(NCc3ccc[n+]([O-])c3)cc(N3CCCC[C@H]3CCO)nc12 [DINACICLIB] | > 30 µM (inactive) |

These compounds were tested against T2, Peroxisomal acyl-coenzyme A oxidase 3 (Homo sapiens, UniProt O15254). Settings: not given.
T2 sequence (O15254 whole entry): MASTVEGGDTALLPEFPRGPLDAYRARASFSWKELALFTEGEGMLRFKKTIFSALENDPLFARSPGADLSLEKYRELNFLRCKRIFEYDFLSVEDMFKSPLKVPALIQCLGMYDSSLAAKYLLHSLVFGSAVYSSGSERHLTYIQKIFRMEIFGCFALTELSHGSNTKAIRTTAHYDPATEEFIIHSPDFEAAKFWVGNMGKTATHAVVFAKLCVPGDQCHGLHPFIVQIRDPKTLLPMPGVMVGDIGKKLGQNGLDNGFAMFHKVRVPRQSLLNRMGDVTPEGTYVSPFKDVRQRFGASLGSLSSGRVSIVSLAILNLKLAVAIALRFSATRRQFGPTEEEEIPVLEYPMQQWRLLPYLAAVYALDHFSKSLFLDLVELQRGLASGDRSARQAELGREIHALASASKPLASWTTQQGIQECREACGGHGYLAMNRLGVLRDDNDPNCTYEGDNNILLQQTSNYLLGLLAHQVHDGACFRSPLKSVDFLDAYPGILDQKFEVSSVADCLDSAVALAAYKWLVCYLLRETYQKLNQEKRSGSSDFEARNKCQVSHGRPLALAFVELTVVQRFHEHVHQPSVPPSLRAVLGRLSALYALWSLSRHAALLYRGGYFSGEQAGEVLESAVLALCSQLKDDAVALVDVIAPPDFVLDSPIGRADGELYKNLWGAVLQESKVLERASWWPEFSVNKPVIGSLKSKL

| SMILES | Kd |
| --- | --- |
| Cc1ccc(S(=O)(=O)Nc2nc3ccccc3nc2Nc2ccc3nsnc3c2)cc1 | > 30 µM (inactive) |
| Cc1cc([C@@H](C)Nc2ccccc2C(=O)O)c2nc(N3CCOCC3)cc(=O)n2c1 [AZD-6482] | > 30 µM (inactive) |
| Cc1nc(N)sc1-c1ccnc(Nc2ccc(N3CCOCC3)cc2)n1 [CYC-116] | > 30 µM (inactive) |
| CCc1cnn2c(NCc3ccc[n+]([O-])c3)cc(N3CCCC[C@H]3CCO)nc12 [DINACICLIB] | > 30 µM (inactive) |

Each compound was assayed against Serine/threonine-protein kinase MRCK beta (Homo sapiens, UniProt Q9Y5S2). Settings: not given.
Sequence of Serine/threonine-protein kinase MRCK beta (Q9Y5S2 whole entry): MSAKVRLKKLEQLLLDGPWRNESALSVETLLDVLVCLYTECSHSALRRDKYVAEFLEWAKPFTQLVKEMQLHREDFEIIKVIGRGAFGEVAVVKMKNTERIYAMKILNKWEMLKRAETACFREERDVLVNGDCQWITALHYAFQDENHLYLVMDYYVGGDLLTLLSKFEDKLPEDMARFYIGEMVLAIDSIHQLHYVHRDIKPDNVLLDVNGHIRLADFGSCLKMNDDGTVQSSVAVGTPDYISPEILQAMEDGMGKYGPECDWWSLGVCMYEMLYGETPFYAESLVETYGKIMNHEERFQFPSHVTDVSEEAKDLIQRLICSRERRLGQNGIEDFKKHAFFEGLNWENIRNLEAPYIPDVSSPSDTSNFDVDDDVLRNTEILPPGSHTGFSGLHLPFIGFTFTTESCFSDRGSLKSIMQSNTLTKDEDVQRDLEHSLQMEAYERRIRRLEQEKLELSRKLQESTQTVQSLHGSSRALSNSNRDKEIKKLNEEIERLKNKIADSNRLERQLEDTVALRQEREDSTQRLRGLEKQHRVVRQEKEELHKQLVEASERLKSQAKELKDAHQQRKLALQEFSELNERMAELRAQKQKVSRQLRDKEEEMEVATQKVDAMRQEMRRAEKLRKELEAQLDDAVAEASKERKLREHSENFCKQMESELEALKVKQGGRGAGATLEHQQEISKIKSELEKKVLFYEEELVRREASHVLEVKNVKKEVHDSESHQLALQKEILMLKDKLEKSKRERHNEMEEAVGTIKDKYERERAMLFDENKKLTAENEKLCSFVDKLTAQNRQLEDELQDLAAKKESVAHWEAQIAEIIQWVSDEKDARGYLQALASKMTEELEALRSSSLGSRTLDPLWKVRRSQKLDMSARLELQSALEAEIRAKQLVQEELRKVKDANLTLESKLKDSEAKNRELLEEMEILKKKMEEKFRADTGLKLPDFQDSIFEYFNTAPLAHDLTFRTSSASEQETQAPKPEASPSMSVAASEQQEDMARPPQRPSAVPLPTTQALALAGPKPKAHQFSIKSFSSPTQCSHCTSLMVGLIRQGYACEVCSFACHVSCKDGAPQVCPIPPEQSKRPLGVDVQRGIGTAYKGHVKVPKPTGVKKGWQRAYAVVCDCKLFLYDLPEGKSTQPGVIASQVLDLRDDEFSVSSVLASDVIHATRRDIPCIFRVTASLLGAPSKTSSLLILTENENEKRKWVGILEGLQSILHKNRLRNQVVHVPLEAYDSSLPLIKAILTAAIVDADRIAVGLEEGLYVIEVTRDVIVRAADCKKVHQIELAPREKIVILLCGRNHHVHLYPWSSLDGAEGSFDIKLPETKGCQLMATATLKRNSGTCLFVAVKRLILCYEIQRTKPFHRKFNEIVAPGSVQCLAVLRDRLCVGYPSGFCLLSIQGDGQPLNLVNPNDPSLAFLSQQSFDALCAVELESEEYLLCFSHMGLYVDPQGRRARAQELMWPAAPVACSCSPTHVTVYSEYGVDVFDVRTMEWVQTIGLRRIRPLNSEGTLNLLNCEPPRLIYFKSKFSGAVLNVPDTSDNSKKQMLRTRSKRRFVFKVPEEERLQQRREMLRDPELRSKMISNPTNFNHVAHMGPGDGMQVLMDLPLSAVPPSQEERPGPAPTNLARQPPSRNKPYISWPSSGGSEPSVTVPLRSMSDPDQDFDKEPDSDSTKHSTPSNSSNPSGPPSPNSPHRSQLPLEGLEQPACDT

| SMILES | Kd |
| --- | --- |
| Cc1ccc(S(=O)(=O)Nc2nc3ccccc3nc2Nc2ccc3nsnc3c2)cc1 | > 30 µM (inactive) |
| Cc1cc([C@@H](C)Nc2ccccc2C(=O)O)c2nc(N3CCOCC3)cc(=O)n2c1 [AZD-6482] | > 30 µM (inactive) |
| Cc1nc(N)sc1-c1ccnc(Nc2ccc(N3CCOCC3)cc2)n1 [CYC-116] | > 30 µM (inactive) |
| CCc1cnn2c(NCc3ccc[n+]([O-])c3)cc(N3CCCC[C@H]3CCO)nc12 [DINACICLIB] | > 30 µM (inactive) |

What follows are compounds tested against T3, Glycogen phosphorylase, liver form (Homo sapiens, UniProt P06737). Settings: read-out: Kd apparent.
T3 sequence (P06737 whole entry): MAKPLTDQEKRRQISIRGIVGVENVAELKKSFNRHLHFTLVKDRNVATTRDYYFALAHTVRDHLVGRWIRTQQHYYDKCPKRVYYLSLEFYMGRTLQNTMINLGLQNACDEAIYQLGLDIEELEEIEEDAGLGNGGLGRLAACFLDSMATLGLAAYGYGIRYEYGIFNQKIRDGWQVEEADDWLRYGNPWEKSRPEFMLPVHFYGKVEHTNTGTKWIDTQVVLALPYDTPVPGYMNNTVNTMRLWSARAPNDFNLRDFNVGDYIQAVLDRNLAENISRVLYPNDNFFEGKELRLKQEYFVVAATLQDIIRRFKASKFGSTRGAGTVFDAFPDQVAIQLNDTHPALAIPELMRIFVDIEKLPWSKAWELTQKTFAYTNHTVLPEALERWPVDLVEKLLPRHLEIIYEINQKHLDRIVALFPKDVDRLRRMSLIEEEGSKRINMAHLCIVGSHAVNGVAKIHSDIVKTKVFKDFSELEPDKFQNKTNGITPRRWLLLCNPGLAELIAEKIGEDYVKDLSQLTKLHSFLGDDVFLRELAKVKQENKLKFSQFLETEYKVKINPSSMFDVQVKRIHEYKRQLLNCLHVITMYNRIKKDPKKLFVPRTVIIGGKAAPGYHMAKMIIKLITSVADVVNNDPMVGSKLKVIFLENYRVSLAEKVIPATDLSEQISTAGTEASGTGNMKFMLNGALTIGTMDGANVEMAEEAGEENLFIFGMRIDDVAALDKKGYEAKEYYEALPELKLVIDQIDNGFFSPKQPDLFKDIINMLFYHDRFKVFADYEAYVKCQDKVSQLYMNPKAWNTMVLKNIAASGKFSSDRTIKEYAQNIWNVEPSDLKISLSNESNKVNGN
Format: subcellular, K-562, COLO 205, SK-N-BE(2) and MV-4-11, Cell lysate

| SMILES | Kd |
| --- | --- |
| Cc1ccc(S(=O)(=O)Nc2nc3ccccc3nc2Nc2ccc3nsnc3c2)cc1 | > 30 µM (inactive) |
| Cc1cc([C@@H](C)Nc2ccccc2C(=O)O)c2nc(N3CCOCC3)cc(=O)n2c1 [AZD-6482] | > 30 µM (inactive) |
| Cc1nc(N)sc1-c1ccnc(Nc2ccc(N3CCOCC3)cc2)n1 [CYC-116] | > 30 µM (inactive) |
| CCc1cnn2c(NCc3ccc[n+]([O-])c3)cc(N3CCCC[C@H]3CCO)nc12 [DINACICLIB] | > 30 µM (inactive) |

Each compound was assayed against T4, Delta(24)-sterol reductase (Homo sapiens, UniProt Q15392). Settings: not given.
T4 sequence (Q15392 whole entry): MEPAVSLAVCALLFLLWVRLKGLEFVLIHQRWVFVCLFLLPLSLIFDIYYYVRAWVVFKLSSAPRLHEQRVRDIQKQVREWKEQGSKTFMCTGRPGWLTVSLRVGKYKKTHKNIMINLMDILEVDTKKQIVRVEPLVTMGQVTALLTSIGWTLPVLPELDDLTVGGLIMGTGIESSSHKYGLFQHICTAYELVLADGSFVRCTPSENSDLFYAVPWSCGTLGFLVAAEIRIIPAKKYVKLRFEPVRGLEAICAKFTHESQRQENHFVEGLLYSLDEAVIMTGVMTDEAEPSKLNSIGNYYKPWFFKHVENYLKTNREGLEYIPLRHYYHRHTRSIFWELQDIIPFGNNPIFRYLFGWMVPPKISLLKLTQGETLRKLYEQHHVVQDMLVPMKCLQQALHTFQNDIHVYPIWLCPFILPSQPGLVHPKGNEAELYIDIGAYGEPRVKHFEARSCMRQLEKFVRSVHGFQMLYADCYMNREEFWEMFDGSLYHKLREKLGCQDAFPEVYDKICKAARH

| SMILES | Kd |
| --- | --- |
| Cc1ccc(S(=O)(=O)Nc2nc3ccccc3nc2Nc2ccc3nsnc3c2)cc1 | > 30 µM (inactive) |
| Cc1cc([C@@H](C)Nc2ccccc2C(=O)O)c2nc(N3CCOCC3)cc(=O)n2c1 [AZD-6482] | > 30 µM (inactive) |
| Cc1nc(N)sc1-c1ccnc(Nc2ccc(N3CCOCC3)cc2)n1 [CYC-116] | > 30 µM (inactive) |
| CCc1cnn2c(NCc3ccc[n+]([O-])c3)cc(N3CCCC[C@H]3CCO)nc12 [DINACICLIB] | > 30 µM (inactive) |

Each compound was assayed against Cyclin-dependent kinase 4 (Homo sapiens, UniProt P11802). Settings: not given.
Sequence of Cyclin-dependent kinase 4 (P11802 whole entry): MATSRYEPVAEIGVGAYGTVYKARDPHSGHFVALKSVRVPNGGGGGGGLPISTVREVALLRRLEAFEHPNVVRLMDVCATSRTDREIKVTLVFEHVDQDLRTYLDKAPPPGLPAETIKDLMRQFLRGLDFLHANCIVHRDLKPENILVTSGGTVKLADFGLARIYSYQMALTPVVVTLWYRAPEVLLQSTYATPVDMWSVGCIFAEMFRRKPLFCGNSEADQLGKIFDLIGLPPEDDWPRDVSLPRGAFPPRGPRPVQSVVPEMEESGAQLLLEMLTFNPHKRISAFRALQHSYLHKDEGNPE

| SMILES | Kd |
| --- | --- |
| Cc1ccc(S(=O)(=O)Nc2nc3ccccc3nc2Nc2ccc3nsnc3c2)cc1 | > 30 µM (inactive) |

The compounds below were run against Activin receptor type-2B (Homo sapiens, UniProt Q13705). Settings: not given.
Sequence of Activin receptor type-2B (Q13705 whole entry): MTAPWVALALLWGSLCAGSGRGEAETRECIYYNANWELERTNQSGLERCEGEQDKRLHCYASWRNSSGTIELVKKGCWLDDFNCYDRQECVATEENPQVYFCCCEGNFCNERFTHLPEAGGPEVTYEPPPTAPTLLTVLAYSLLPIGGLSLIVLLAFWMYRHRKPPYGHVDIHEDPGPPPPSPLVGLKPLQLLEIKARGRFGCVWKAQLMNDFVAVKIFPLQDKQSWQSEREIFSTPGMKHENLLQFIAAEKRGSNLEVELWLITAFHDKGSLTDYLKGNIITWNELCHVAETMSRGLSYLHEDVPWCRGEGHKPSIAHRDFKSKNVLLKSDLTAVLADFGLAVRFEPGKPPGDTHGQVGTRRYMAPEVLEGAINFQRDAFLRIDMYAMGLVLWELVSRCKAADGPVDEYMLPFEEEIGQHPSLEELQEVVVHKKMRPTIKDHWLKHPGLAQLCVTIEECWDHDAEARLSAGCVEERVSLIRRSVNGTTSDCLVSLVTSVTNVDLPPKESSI

| SMILES | Kd |
| --- | --- |
| Cc1cc([C@@H](C)Nc2ccccc2C(=O)O)c2nc(N3CCOCC3)cc(=O)n2c1 [AZD-6482] | > 30 µM (inactive) |
| Cc1nc(N)sc1-c1ccnc(Nc2ccc(N3CCOCC3)cc2)n1 [CYC-116] | > 30 µM (inactive) |
| CCc1cnn2c(NCc3ccc[n+]([O-])c3)cc(N3CCCC[C@H]3CCO)nc12 [DINACICLIB] | > 30 µM (inactive) |

The compounds below were run against cAMP-dependent protein kinase catalytic subunit beta (Homo sapiens, UniProt P22694). Settings: not given.

| SMILES | Kd |
| --- | --- |
| Cc1ccc(S(=O)(=O)Nc2nc3ccccc3nc2Nc2ccc3nsnc3c2)cc1 | > 30 µM (inactive) |
| Cc1cc([C@@H](C)Nc2ccccc2C(=O)O)c2nc(N3CCOCC3)cc(=O)n2c1 [AZD-6482] | > 30 µM (inactive) |
| CCc1cnn2c(NCc3ccc[n+]([O-])c3)cc(N3CCCC[C@H]3CCO)nc12 [DINACICLIB] | > 30 µM (inactive) |

What follows are compounds tested against Tyrosine-protein kinase Fyn (Homo sapiens, UniProt P06241). Settings: not given.
Sequence of Tyrosine-protein kinase Fyn (P06241 whole entry): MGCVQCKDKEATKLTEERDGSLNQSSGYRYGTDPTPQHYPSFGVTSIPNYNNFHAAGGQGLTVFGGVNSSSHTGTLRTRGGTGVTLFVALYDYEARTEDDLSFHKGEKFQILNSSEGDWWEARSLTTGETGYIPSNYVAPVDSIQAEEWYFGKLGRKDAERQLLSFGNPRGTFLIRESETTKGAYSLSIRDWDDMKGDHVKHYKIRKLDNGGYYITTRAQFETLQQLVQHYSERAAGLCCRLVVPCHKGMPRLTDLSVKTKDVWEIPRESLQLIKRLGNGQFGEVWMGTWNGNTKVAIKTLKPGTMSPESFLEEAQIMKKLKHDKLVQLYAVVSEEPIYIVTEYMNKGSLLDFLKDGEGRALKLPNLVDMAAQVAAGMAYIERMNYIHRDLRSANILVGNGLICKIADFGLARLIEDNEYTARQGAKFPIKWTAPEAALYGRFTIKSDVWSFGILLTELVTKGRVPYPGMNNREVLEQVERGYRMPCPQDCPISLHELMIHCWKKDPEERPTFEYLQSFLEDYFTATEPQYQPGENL

| SMILES | Kd |
| --- | --- |
| Cc1ccc(S(=O)(=O)Nc2nc3ccccc3nc2Nc2ccc3nsnc3c2)cc1 | > 30 µM (inactive) |
| Cc1cc([C@@H](C)Nc2ccccc2C(=O)O)c2nc(N3CCOCC3)cc(=O)n2c1 [AZD-6482] | > 30 µM (inactive) |
